Assay results: PubChem BioAssay (NCI)
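Test compounds were applied to cells in 96-well plates for 48 hours at 5 doses. Definition used: TGI = concentration required for complete inhibition of growth.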

Experiments:
Test in all cases: growth of human tumour cells (NCI), 48 h
BT-549 breast = tested on: BT-549 breast
MDA-MB-231 breast = tested on: MDA-MB-231 breast
HS 578T breast = tested on: HS 578T breast
K-562 leukemia = tested on: K-562 leukemia
SK-MEL-28 melanoma = tested on: SK-MEL-28 melanoma
DU-145 prostate = tested on: DU-145 prostate
A549 NSCLC = tested on: A549 NSCLC
UO-31 renal = tested on: UO-31 renal
OVCAR-8 ovarian = tested on: OVCAR-8 ovarian
OVCAR-3 ovarian = tested on: OVCAR-3 ovarian
HT29 colon = tested on: HT29 colon
NCI-H460 lung = tested on: NCI-H460 lung
HCC-2998 colon = tested on: HCC-2998 colon
OVCAR-5 ovarian = tested on: OVCAR-5 ovarian
IGROV1 ovarian = tested on: IGROV1 ovarian
MALME-3M melanoma = tested on: MALME-3M melanoma
M14 melanoma = tested on: M14 melanoma
786-0 renal = tested on: 786-0 renal
ACHN renal = tested on: ACHN renal
UACC-257 melanoma = tested on: UACC-257 melanoma
MOLT-4 leukemia = tested on: MOLT-4 leukemia
SW-620 colon = tested on: SW-620 colon
MDA-N = tested on: MDA-N
HL-60(TB) leukemia = tested on: HL-60(TB) leukemia
CAKI-1 renal = tested on: CAKI-1 renal
MCF7 breast = tested on: MCF7 breast
SK-OV-3 ovarian = tested on: SK-OV-3 ovarian
EKVX NSCLC = tested on: EKVX NSCLC
SNB-19 CNS = tested on: SNB-19 CNS
UACC-62 melanoma = tested on: UACC-62 melanoma
U251 CNS = tested on: U251 CNS
SN12C renal = tested on: SN12C renal
CCRF-CEM leukemia = tested on: CCRF-CEM leukemia
SNB-75 CNS = tested on: SNB-75 CNS
SF-539 CNS = tested on: SF-539 CNS
NCI/ADR-RES ovarian = tested on: NCI/ADR-RES ovarian
HCT-15 colon = tested on: HCT-15 colon
RXF 393 renal = tested on: RXF 393 renal
SF-268 CNS = tested on: SF-268 CNS
SK-MEL-5 melanoma = tested on: SK-MEL-5 melanoma
NCI-H226 lung = tested on: NCI-H226 lung
A498 renal = tested on: A498 renal
HOP-62 NSCLC = tested on: HOP-62 NSCLC
SK-MEL-2 melanoma = tested on: SK-MEL-2 melanoma
T-47D breast = tested on: T-47D breast
SR leukemia = tested on: SR leukemia
NCI-H522 lung = tested on: NCI-H522 lung
HCT-116 colon = tested on: HCT-116 colon
SF-295 CNS = tested on: SF-295 CNS
TK-10 renal = tested on: TK-10 renal
COLO 205 colon = tested on: COLO 205 colon
OVCAR-4 ovarian = tested on: OVCAR-4 ovarian
KM12 colon = tested on: KM12 colon
PC-3 prostate = tested on: PC-3 prostate
NCI-H23 lung = tested on: NCI-H23 lung
HOP-92 NSCLC = tested on: HOP-92 NSCLC
MDA-MB-435 = tested on: MDA-MB-435
LOX IMVI melanoma = tested on: LOX IMVI melanoma
RPMI-8226 leukemia = tested on: RPMI-8226 leukemia

Measured: TGI

CCOC(=O)n1c2ccccc2c(=O)n1CCO
not listed: HOP-92 NSCLC | MDA-MB-435 | LOX IMVI melanoma | RPMI-8226 leukemia
> 100 µM: all other assays above

O=C(Nc1ccc(Cl)c(C(F)(F)F)c1)C(=O)c1c(O)c2ccccc2oc1=O
not listed: DU-145 prostate | HL-60(TB) leukemia | COLO 205 colon
> 100 µM: all other assays above
